Source: patent US20250346621A1, “ASCAROSIDE SALTS” (Ascribe Bioscience Inc., priority 2022, published 2025)

Test system: Bipolaris sorokiniana
Assay: greenhouse-based plant pathogen assay: protection of wheat plants from Bipolaris sorokiniana damage
Type: in vivo
Details: two-week-old wheat plants sprayed with 1 μM, inoculated 24 h after treatment, symptoms quantified ten days after inoculation; compared with un-modified ascr #18; *P≤0.04
Description: The efficacy of the zinc salt of ascr #18 was compared to free ascr #18 in a greenhouse-based plant pathogen assay. Two-week-old wheat plants were sprayed with a solution containing 1 μM ascr #18, or 1 μM of the zinc salt (ascr #18)2Zn. 24 h after treatment, the plants were inoculated with spores of Bipolaris sorokiniana (causal agent of root rot and brown spot blotch). Disease symptoms were quantified ten days after inoculation by measuring the symptomatic area on the leaves.

## CC(CCCCCCCCC(=O)[O-])OC1OC(C)C(O)CC1O.CC(CCCCCCCCC(=O)[O-])OC1OC(C)C(O)CC1O.[Zn+2] (stereo not shown) [(ascr #18)2Zn]
  protection against pathogen damage (symptomatic area on the leaves): better protection against pathogen damage than un-modified ascr #18
